Measurements as given in US3939266A, “Substituted sulfonylacetamido cephalosporins” (SmithKline Corporation, priority 1974, dated 1976).
Values after ≈ are worked out from the molar mass of the structure shown. Like-named read-outs stand apart in the source and are kept apart here.

What was measured:
Format in all cases: cell-based
[1] = system: Entero. aerog. ATCH 13048; experiment: MIC against Entero. aerog. ATCH 13048
[2] = system: Shigella HH 112; experiment: MIC against Shigella HH 112; details: HH112
[3] = system: Entero. cloaca PaSL 969; experiment: MIC against Entero. cloaca PaSL 969
[4] = system: E. coli SK 12140; experiment: MIC against E. coli SK 12140; details: Escherichia coli, SK12140
[5] = system: S. aureus HH 127; experiment: MIC against S. aureus HH 127; details: Staphylococcus aureus, HH127
[6] = system: E. coli HH 33779; experiment: MIC against E. coli HH 33779; details: Escherichia coli, HH33779
[7] = system: Strep. pyog. C 203; experiment: MIC against Strep. pyog. C 203
[8] = system: Salmonella ATCC 12176; experiment: MIC against Salmonella ATCC 12176; details: ATCC12176
[9] = system: Kleb. pneumo. SK 1200; experiment: MIC against Kleb. pneumo. SK 1200
[10] = system: Strep. faecalis HH 34358; experiment: MIC against Strep. faecalis HH 34358; details: Enterococcus faecalis, HH34358
[11] = system: S. villaluz; experiment: MIC against S. villaluz
[12] = system: S. aureus SK 23390; experiment: MIC against S. aureus SK 23390; details: Staphylococcus aureus, SK23390
[13] = system: Pseudo. sp. HH 63; experiment: MIC against Pseudo. sp. HH 63
[14] = system: Serra. marc. ATCC 13880; experiment: MIC against Serra. marc. ATCC 13880
[15] = system: Kleb. pneumo. SK 4200; experiment: MIC against Kleb. pneumo. SK 4200
[16] = E. coli SK 12140, read-out: MIC
[17] = Salmonella ATCC 12176, read-out: MIC

SMILES	MIC [1] [mg/L]	MIC ([2]; Shigella HH 112, read-out: MIC) [mg/L]	MIC [3] [mg/L]	MIC [4, 16] [mg/L]	MIC [5] [mg/L]	MIC [6] [mg/L]	MIC [7] [mg/L]	MIC [8, 17] [mg/L]	MIC [9] [mg/L]	MIC [10] [mg/L]	MIC [11] [mg/L]	MIC [12] [mg/L]	MIC [13] [mg/L]	MIC [14] [mg/L]	MIC [15] [mg/L]	MIC ([2]; Shigella) [mg/L]	MIC ([8]; Salmonella) [mg/L]	MIC [4] [mg/L]
CC1=C(C(=O)O)N2C(=O)C(NC(=O)CS(C)(=O)=O)[C@H]2SC1 (some centres unmarked) [Compound 59454, 7-Methylsulfonylacetamido-3-methyl-3-cephem-4-carboxylic acid]	> 200	> 200	> 200	> 200	25 (≈ 74.8 µM)	> 200	0.4 (≈ 1.2 µM)	> 200	> 200	> 200	> 200	25 (≈ 74.8 µM)	> 200	> 200	> 200	–	–	–
Cn1c(SCC2=C(C(=O)O)N3C(=O)C(NC(=O)CS(C)(=O)=O)C3SC2)n[nH]c1=O (centres unmarked) [Compound 59857]	> 200	25 (≈ 53.9 µM)	–	25 (≈ 53.9 µM)	1.6 (≈ 3.45 µM)	50 (≈ 108 µM)	0.2 (≈ 0.431 µM)	3.1 (≈ 6.69 µM)	6.3 (≈ 13.6 µM)	100 (≈ 216 µM)	25 (≈ 53.9 µM)	1.6 (≈ 3.45 µM)	> 200	> 200	6.3 (≈ 13.6 µM)	–	–	–
CC(=O)OCC1=C(C(=O)O)N2C(=O)C(NC(=O)CS(=O)(=O)c3ccccc3)C2SC1 (centres unmarked) [Compound 57359, 7-Phenylsulfonylacetamidocephalosporanic acid]	> 200	25 (≈ 55 µM)	> 200	50 (≈ 110 µM)	1.6 (≈ 3.52 µM)	100 (≈ 220 µM)	0.2 (≈ 0.44 µM)	12.5 (≈ 27.5 µM)	6.3 (≈ 13.9 µM)	50 (≈ 110 µM)	–	0.8 (≈ 1.76 µM)	> 200	> 200	12.5 (≈ 27.5 µM)	–	–	–
Cc1nnc(SCC2=C(C(=O)O)N3C(=O)C(NC(=O)CS(=O)(=O)c4ccccc4)[C@H]3SC2)s1 (some centres unmarked) [Compound 57360, 7-Phenylsulfonylacetamido-3-(2-methyl-1,3,4-thiadiazol-5-ylthiomethyl)-3-cephem-4-carboxylic acid]	> 200	25 (≈ 47.5 µM)	> 200	25 (≈ 47.5 µM)	0.8 (≈ 1.52 µM)	100 (≈ 190 µM)	0.1 (≈ 0.19 µM)	25 (≈ 47.5 µM)	12.5 (≈ 23.7 µM)	25 (≈ 47.5 µM)	–	0.4 (≈ 0.76 µM)	> 200	> 200	25 (≈ 47.5 µM)	–	–	–
CC(=O)OCC1=C(C(=O)O)N2C(=O)C(NC(=O)CS(C)(=O)=O)C2SC1 (centres unmarked) [Compound 54293, 7-Methylsulfonylacetamidocephalosporanic acid]	> 200	25 (≈ 63.7 µM)	> 200	12.5 (≈ 31.9 µM)	3.1 (≈ 7.9 µM)	25 (≈ 63.7 µM)	0.4 (≈ 1.02 µM)	12.5 (≈ 31.9 µM)	12.5 (≈ 31.9 µM)	200 (≈ 510 µM)	–	1.6 (≈ 4.08 µM)	> 200	–	12.5 (≈ 31.9 µM)	–	–	–
CCS(=O)(=O)CC(=O)NC1C(=O)N2C(C(=O)O)=C(CSc3nnc(C)s3)CSC12 (centres unmarked) [Compound 59641, 7-Ethyldulfonylacetamido-3-(2-methyl-1,3,5-thiadiazol-5-yl-thiomethyl)-3-cephem-4-carboxylic acid]	100 (≈ 209 µM)	6.3 (≈ 13.2 µM)	–	3.1 (≈ 6.48 µM)	0.4 (≈ 0.836 µM)	12.5 (≈ 26.1 µM)	0.1 (≈ 0.209 µM)	1.6 (≈ 3.34 µM)	1.6 (≈ 3.34 µM)	25 (≈ 52.2 µM)	–	0.4 (≈ 0.836 µM)	> 200	> 200	1.6 (≈ 3.34 µM)	–	–	–
CC(=O)OCC1=C(C(=O)O)N2C(=O)C(NC(=O)CS(N)(=O)=O)C2SC1 (centres unmarked) [Compound 59393, 7-Aminosulfonylacetamidocephalosporanic acid]	200 (≈ 508 µM)	25 (≈ 63.5 µM)	100 (≈ 254 µM)	50 (≈ 127 µM)	1.6 (≈ 4.07 µM)	50 (≈ 127 µM)	0.1 (≈ 0.254 µM)	12.5 (≈ 31.8 µM)	25 (≈ 63.5 µM)	50 (≈ 127 µM)	–	1.6 (≈ 4.07 µM)	> 200	> 200	25 (≈ 63.5 µM)	–	–	–
CCS(=O)(=O)CC(=O)NC1C(=O)N2C(C(=O)O)=C(COC(C)=O)CSC12 (centres unmarked) [Compound 59623, 7-Ethylsulfonylacetamidocephalosporanic acid]	200 (≈ 492 µM)	25 (≈ 61.5 µM)	–	25 (≈ 61.5 µM)	0.8 (≈ 1.97 µM)	50 (≈ 123 µM)	0.1 (≈ 0.246 µM)	3.1 (≈ 7.63 µM)	6.3 (≈ 15.5 µM)	100 (≈ 246 µM)	100 (≈ 246 µM)	0.8 (≈ 1.97 µM)	> 200	> 200	6.3 (≈ 15.5 µM)	–	–	–
CS(=O)(=O)CC(=O)NC1C(=O)N2C(C(=O)[O-])=C(C[n+]3ccccc3)CSC12 (centres unmarked) [Compound 59345, 7-Methylsulfonylacetamido-3-(1-pyridiniummethyl)-3-cephem-4-carboxylic acid]	> 200	50 (≈ 122 µM)	> 200	100 (≈ 243 µM)	0.8 (≈ 1.94 µM)	100 (≈ 243 µM)	0.1 (≈ 0.243 µM)	50 (≈ 122 µM)	100 (≈ 243 µM)	100 (≈ 243 µM)	25 (≈ 60.8 µM)	0.8 (≈ 1.94 µM)	> 200	> 200	50 (≈ 122 µM)	–	–	–
Cn1nnnc1SCC1=C(C(=O)O)N2C(=O)C(NC(=O)CS(C)(=O)=O)[C@H]2SC1 (some centres unmarked) [Compound 57286, 7-Methylsulfonylacetamido-3-(1-methyltetrazol-5-ylthiomethyl)-3-cephem-4-carboxylic acid]	> 200	3.1 (≈ 6.91 µM)	> 200	3.1 (≈ 6.91 µM)	3.1 (≈ 6.91 µM)	12.5 (≈ 27.9 µM)	0.2 (≈ 0.446 µM)	3.1 (≈ 6.91 µM)	3.1 (≈ 6.91 µM)	100 (≈ 223 µM)	–	1.6 (≈ 3.57 µM)	> 200	> 200	1.6 (≈ 3.57 µM)	–	–	–
Cn1cnnc1SCC1=C(C(=O)O)N2C(=O)C(NC(=O)CS(C)(=O)=O)C2SC1 (centres unmarked) [Compound 59758]	> 200	–	–	6.3 (≈ 14.1 µM)	3.1 (≈ 6.93 µM)	12.5 (≈ 27.9 µM)	0.1 (≈ 0.223 µM)	–	6.3 (≈ 14.1 µM)	200 (≈ 447 µM)	50 (≈ 112 µM)	1.6 (≈ 3.58 µM)	> 200	> 200	6.3 (≈ 14.1 µM)	0.1 (≈ 0.223 µM)	3.1 (≈ 6.93 µM)	–
Cc1nnc(SCC2=C(C(=O)O)N3C(=O)C(NC(=O)CS(C)(=O)=O)[C@H]3SC2)s1 (some centres unmarked) [Compound 55848, 7-Methylsulfonylacetamido-3-(2-methyl-1,3,4-thiadiazol-5-ylthiomethyl)-3-cephem-4-carboxylic acid]	> 200	12.5 (≈ 26.9 µM)	> 200	–	1.6 (≈ 3.44 µM)	25 (≈ 53.8 µM)	0.2 (≈ 0.431 µM)	3.1 (≈ 6.67 µM)	6.3 (≈ 13.6 µM)	50 (≈ 108 µM)	–	1.6 (≈ 3.44 µM)	> 200	–	3.1 (≈ 6.67 µM)	–	–	12.5 (≈ 26.9 µM)
